Target: T1, Cloned Human Serotonin Receptor, Subtype 7 (h5HT7), expressed in CHO cells (Homo sapiens, UniProt P34969)
T1 construct: purchased PerkinElmer 6120512; host or cells: CHO cells
Assay: Radioligand binding assay, [125I]LSD, cloned human 5HT7 receptor on Flashplate
Settings: not given
Experimental: The protocol assay was essentially the recommended protocol in the Technical Data Sheet by PerkinEmer Life and Analytical Sciences. The Mass membrane protein/well was typically 12 μg and the Receptor/well was about 9-10 fmoles. The Flashplate were let equilibrate at room temperature for one hour before the addition of the components of the assay mixture. The binding buffer was: 50 mM Tris-HCl, pH 7.4, containing 10 mM MgCl2, 0.5 mM EDTA and 0.5% BSA. […] Nonspecific binding was determined with 50 μM of Clozapine. The assay volume was 25 μl. TopSeal-A were applied onto Flashplate microplates and they were incubated at room temperature for 240 minutes in darkness.

T1 sequence (P34969 whole entry): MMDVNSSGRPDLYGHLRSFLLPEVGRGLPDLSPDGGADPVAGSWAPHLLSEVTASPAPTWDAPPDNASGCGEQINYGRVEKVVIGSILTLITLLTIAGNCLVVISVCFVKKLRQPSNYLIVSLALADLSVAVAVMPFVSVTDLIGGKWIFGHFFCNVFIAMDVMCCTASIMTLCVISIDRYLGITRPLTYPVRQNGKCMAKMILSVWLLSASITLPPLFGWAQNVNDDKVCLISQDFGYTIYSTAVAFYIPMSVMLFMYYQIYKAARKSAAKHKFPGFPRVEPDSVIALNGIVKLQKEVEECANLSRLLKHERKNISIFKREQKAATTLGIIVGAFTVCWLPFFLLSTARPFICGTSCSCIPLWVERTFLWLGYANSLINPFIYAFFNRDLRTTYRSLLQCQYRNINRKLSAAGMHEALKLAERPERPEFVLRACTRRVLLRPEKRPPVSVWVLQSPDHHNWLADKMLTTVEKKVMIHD

SMILES | affinity for the 5HT7 receptor (in words)
COc1ccc(C(C)C)cc1CN1CCN(c2cccc3[nH]ccc23)CC1 [Ex 29, 4-(4-(5-isopropyl-2-methoxybenzyl)piperazin-1-yl)-1H-indole] | good affinity
CCOc1ccccc1N1CCN(Cc2c[nH]c3ccccc23)CC1 [c, 3-((4-(2-ethoxyphenyl)piperazin-1-yl)methyl)-1H-indole] | good affinity
CN(C)S(=O)(=O)c1ccc2[nH]cc(CCN)c2c1 [compound a, 3-(2-aminoethyl)-N,N-dimethyl-1H-indole-5-sulfonamide] | good affinity
CC(C)Oc1ccccc1N1CCN(Cc2ccc(-n3ccnc3)cc2)CC1 [e, 1-(4-(1H-imidazol-1-yl)benzyl)-4-(2-isopropoxyphenyl)piperazine] | good affinity
O=c1[nH]c2ccccc2n1C1=CCN(CCCOc2ccccc2)CC1 [j, 1-(1-(3-phenoxypropyl)-1,2,3,6-tetrahydropyridin-4-yl)-1H-benzo[d]imidazol-2(3H)-one] | good affinity
O=C(c1cccs1)C1CN2CCC1CC2 (stereo not shown) [l, quinuclidin-3-yl(thiophen-2-yl)methanone] | good affinity

Same assay, conditions: 5HT7 binding experiments on the screening selection

affinity for the 5HT7 receptor (in words) | SMILES
good affinity | CC(C)Oc1ccccc1N1CCN(Cc2ccc(Cl)nc2)CC1 [b, 1-((6-chloropyridin-3-yl)methyl)-4-(2-isopropoxyphenyl)piperazine]
good affinity | O=c1[nH]c2ccccc2n1C1CCN(CCOc2ccccc2)CC1 [compound i, 1-(1-(2-phenoxyethyl)piperidin-4-yl)-1H-benzo[d]imidazol-2(3H)-one]
good affinity | COc1ccccc1N1CCN(CCC(O)c2ccccc2)CC1 (stereo not shown) [d, 3-(4-(2-methoxyphenyl)piperazin-1-yl)-1-phenylpropan-1-ol]
good affinity | COc1ccccc1N1CCN(CCC(=O)Nc2ccc3c(c2)CCC3)CC1 [f, N-(2,3-dihydro-1H-inden-5-yl)-3-(4-(2-methoxyphenyl)piperazin-1-yl)propanamide]
good affinity | O=c1[nH]c2ccccc2n1C1=CCN(CCOc2ccccc2)CC1 [k, 1-(1-(2-phenoxyethyl)-1,2,3,6-tetrahydropyridin-4-yl)-1H-benzo[d]imidazol-2(3H)-one]

Same assay, conditions: compound at 10^−6 M; radioligand [125I]LSD 0.82 nM; read-out: %-Inhib. (10^−6 M)

inhibition at 1 µM [%] | SMILES
41.5 | O=[N+]([O-])c1cccc(CN2CCN(c3cccc4[nH]ccc34)CC2)c1 [Ex 36, 4-(4-(3-nitrobenzyl)piperazin-1-yl)-1H-indole]

Target: 5HT7 receptor (Homo sapiens, UniProt P34969)
Sequence (P34969 whole entry): as above
Assay: 5HT7 agonist functionality (EC50 agonist)
Assay type: cell-based
Settings: screening data, agonist reference hit

SMILES | EC50 [nM]
COc1ccc(C(C)C)cc1CN1CCN(c2cccc3[nH]ccc23)CC1 [Ex 29, 4-(4-(5-isopropyl-2-methoxybenzyl)piperazin-1-yl)-1H-indole] | 6.62
